{"source": "the NIST ThermoML archive (doi:10.1016/j.jct.2005.03.002)", "details": "101.33 kPa, Liquid", "note": "Numbers after ± are expanded uncertainties."}
{"molecule": "CCOS(=O)(=O)[O-].CCn1cc[n+](C)c1", "note": "[1-ethyl-3-methylimidazolium ethyl sulfate]", "values": [{"measurement": "mass density", "setting": "278.2 K", "value": "1243 ± 6.1", "unit": "kg/m3"}, {"measurement": "mass density", "setting": "288.2 K", "value": "1236.2 ± 6", "unit": "kg/m3"}, {"measurement": "mass density", "setting": "298.2 K", "value": "1229.6 ± 5.9", "unit": "kg/m3"}, {"measurement": "mass density", "setting": "308.2 K", "value": "1223 ± 5.8", "unit": "kg/m3"}, {"measurement": "mass density", "setting": "318.2 K", "value": "1216.2 ± 5.7", "unit": "kg/m3"}, {"measurement": "mass density", "setting": "328.2 K", "value": "1209.9 ± 5.7", "unit": "kg/m3"}, {"measurement": "mass density", "setting": "338.2 K", "value": "1203.7 ± 5.6", "unit": "kg/m3"}]}
